Assay results from patent US20230416239A1, “COMPOUNDS AND METHODS FOR TREATING A CYTOKINE-MEDIATED DISEASE” (CONSERVATOIRE NATIONAL DES ARTS ET MÉTIERS, priority 2020, published 2023).

Experiments:
[1] = target: T1, IL-4 (Homo sapiens, UniProt P05112); assay: Immunoassay binding test, IL-4; conditions: for IC50: IL-4 400 ng/ml, receptor 100 ng/ml, read-out: BINDING IL4 IC50
T1 sequence (P05112 25-153): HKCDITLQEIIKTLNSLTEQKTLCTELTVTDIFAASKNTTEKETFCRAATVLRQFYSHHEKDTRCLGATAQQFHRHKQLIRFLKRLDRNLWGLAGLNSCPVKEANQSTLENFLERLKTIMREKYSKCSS
Summary of the method: (§1)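 Compounds (final 100 to 0.78 μM) were preincubated 2 h at 37 °C with a fixed amount of cytokine; for IL-6, IL-6Ra was also present at 200 ng/ml final. Mixtures were then incubated overnight at 4 °C on receptor-coated plates. Bound cytokine was detected with biotinylated anti-cytokine antibody and avidin-HRP, read as OD at 450 nm.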

[2] = target: IL-6 (Homo sapiens, UniProt P05231); assay: Immunoassay binding test, IL-6 (gp130 receptor, IL-6Ra present); conditions: IL-6Ra 200 ng/ml
Summary of the method: as §1

[3] = target: TNFa/TNFRI interaction (Homo sapiens, UniProt P01375); assay: TNFa/TNFRI interaction displacement test; format: binding; conditions: compounds at 50 μM; human TNFRI 100 ng/ml
Summary of the method: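 Plates coated overnight at 4° C with human TNFRI (100 ng/ml) and blocked with 2% BSA, then test mixtures were incubated overnight at 4° C. Bound cytokine detected with biotinylated anti-cytokine antibody (2 h, 37° C) and avidin-HRP, read as OD at 450 nm.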

[4] = target: TNFα (Homo sapiens, UniProt P01375); assay: Immunoassay binding test, TNFa; conditions: compounds 100 to 0.78 μM; TNFα 10 ng/ml, receptor 100 ng/ml; read-out: BINDING TNF IC50
Summary of the method: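 ELISA-type binding test: receptor-coated plates blocked with 2% BSA, then cytokine (six-point dilution series) preincubated 2 h at 37 °C and bound overnight at 4 °C. Detection used biotinylated anti-cytokine antibody and avidin-HRP, read as OD at 450 nm. For IL-6, IL-6Ra was present at 200 ng/ml final.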

[5] = target: IL-13 (Homo sapiens, UniProt P35225); assay: Immunoassay binding test, IL-13; conditions: for IC50: IL-13 400 ng/ml, receptor 100 ng/ml, read-out: BINDING IL13 IC50
Summary of the method: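 Receptor-coated plates; compounds (100 to 0.78 μM final) preincubated 2 h at 37° C with fixed cytokine, then bound to receptor overnight at 4° C. Bound cytokine detected with biotinylated anti-cytokine antibody and avidin-HRP, OD 450 nm.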

Chain of IL-13 (P35225 25-146, species assumed): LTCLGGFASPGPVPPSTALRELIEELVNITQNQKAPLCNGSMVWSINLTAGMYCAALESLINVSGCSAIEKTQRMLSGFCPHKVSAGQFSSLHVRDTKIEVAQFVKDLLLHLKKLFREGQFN
Chain of TNFα (P01375 77-233 limits assumed, species assumed): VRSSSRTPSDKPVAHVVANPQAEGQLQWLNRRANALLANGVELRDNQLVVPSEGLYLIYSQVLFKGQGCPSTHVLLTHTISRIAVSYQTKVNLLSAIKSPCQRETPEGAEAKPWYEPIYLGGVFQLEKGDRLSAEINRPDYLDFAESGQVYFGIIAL
Chain of TNFa/TNFRI interaction (P01375 77-233 limits assumed): as the sequence (P01375 77-233 limits assumed, species assumed) above
Chain of IL-6 (P05231 30-212, species assumed): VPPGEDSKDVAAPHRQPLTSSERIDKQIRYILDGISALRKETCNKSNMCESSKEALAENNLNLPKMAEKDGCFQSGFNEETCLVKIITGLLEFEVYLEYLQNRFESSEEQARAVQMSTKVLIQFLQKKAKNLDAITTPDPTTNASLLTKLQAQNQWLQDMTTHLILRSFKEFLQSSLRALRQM

Row | BINDING IL4 % Neutra at 100 μM [1] [%] | IC50 [1] [µM] | BINDING IL6 % Neutra at 100 μM [2] [%] | Displacement (%) [3] [%] | IC50 [4] [µM] | BINDING IL13 % Neutra at 100 μM [5] [%] | IC50 [5] [µM] | Structure (SMILES)
1 | 89.8 | 2.8 | 0 | 160 | 11.2 | 91.3 | 7.8 | CCN(CCOCCN(Cc1cccnc1F)Cc1cn(S(=O)(=O)c2ccccc2)c2ccccc12)C1CCCCC1 [Compound 93, N-ethyl-N-(2-(2-(((2-fluoropyridin-3-yl)methyl)((1-(phenylsulfonyl)-1H-indol-3-yl)methyl)amino)ethoxy)ethyl)cyclohexanamine]
2 | 87.7 | 8.6 | 0 | 128 | 8 | 83.0 | > 50 | CCN(CCOCCN(Cc1cccnc1F)Cc1cn(S(=O)(=O)c2ccccc2)c2ccccc12)C1CCCCC1 [Compound 100]
3 | 91.1 | 10.5 | 0 | 159 | 10.2 | 89.1 | 38.9 | O=S(=O)(c1ccccc1)n1cc(CN(CCOCCNC2CCCC2)Cc2cccnc2F)c2ccccc21 [Compound 103, N-(2-(2-(((2-fluoropyridin-3-yl)methyl)((1-(phenylsulfonyl)-1H-indol-3-yl)methyl)amino)ethoxy)ethyl)cyclopentanamine]
4 | 88.2 | 13.2 | 0 | 123 | 9.2 | 79.8 | > 50 | CN(CCOCCN(Cc1cccnc1F)Cc1cn(S(=O)(=O)c2ccccc2)c2ccccc12)C1CCCC1 [Compound 104]
5 | 91.2 | 11.5 | 0 | 162 | 7.5 | 74.3 | > 50 | CN(CCOCCN(Cc1cccnc1F)Cc1cn(S(=O)(=O)c2ccccc2)c2ccccc12)C1CCCC1 [Compound 105, N-(2-(2-(((2-fluoropyridin-3-yl)methyl)((1-(phenylsulfonyl)-1H-indol-3-yl)methyl)amino)ethoxy)ethyl)-N-methylcyclopentanamine]
6 | 84.1 | 14.6 | 0 | 132 | 11.5 | 32.1 | > 50 | CCCN(CCOCCN(Cc1cccnc1F)Cc1cn(S(=O)(=O)c2ccccc2)c2ccccc12)C1CCCC1 [Compound 106]

The remaining lines, values behind:

Row | Structure (SMILES) | BINDING IL4 % Neutra at 100 μM [1] [%] | IC50 [1] [µM] | BINDING IL6 % Neutra at 100 μM [2] [%] | Displacement (%) [3] [%] | IC50 [4] [µM] | BINDING IL13 % Neutra at 100 μM [5] [%] | IC50 [5] [µM]
7 | CN(C)CCCCCN(Cc1cccc(F)n1)Cc1cn(S(=O)(=O)c2ccccc2)c2ccccc12 [Compound 90] | 94.0 | 5.2 | 0 | 137 | 15.5 | 69.7 | > 50
8 | CN(CCCCN(Cc1ccn(S(=O)(=O)c2ccccc2)c1)Cc1cccnc1F)C1CCCCC1 [Compound 91, N1-cyclohexyl-N4-((2-fluoropyridin-3-yl)methyl)-N1-methyl-N4-((1-(phenylsulfonyl)-1H-pyrrol-3-yl)methyl)butane-1,4-diamine] | 87.5 | 16.4 | 0 | 87 | 27.5 | 35.8 | > 50
9 | CN1CCN(S(=O)(=O)n2cc(CN(CCCCN(C)C3CCCCC3)Cc3cccnc3F)c3ccccc32)CC1 [Compound 92] | 92.3 | 7.7 | 2 | 117 | 8.4 | 72.0 | > 50
10 | CN(CCCCN(Cc1cccnc1F)Cc1cn(S(=O)(=O)c2ccccc2)c2ncccc12)C1CCCCC1 [Compound 94, N1-cyclohexyl-N4-((2-fluoropyridin-3-yl)methyl)-N1-methyl-N4-((1-(phenylsulfonyl)-1H-pyrrolo[2,3-b]pyridin-3-yl)methyl)butane-1,4-diamine] | 95.8 | 34.5 | 0 | 101 | 19 | 75.2 | > 50
11 | CN(CCCCN(Cc1cccnc1F)Cc1cn(C)c2ccccc12)C1CCCCC1 [Compound 95] | 75.3 | > 50 | 0 | 16 | > 50 | 0 | –
12 | CCn1cc(CN(CCCCN(C)C2CCCCC2)Cc2cccnc2F)c2ccccc21 [Compound 96] | 74.5 | 62.3 | 1 | 26 | > 50 | 0 | –
13 | CCCN(CCOCCN(Cc1cccnc1F)Cc1cn(S(=O)(=O)c2ccccc2)c2ccccc12)C1CCCCC1 [Compound 97, N-(2-(2-(((2-fluoropyridin-3-yl)methyl) ((1-(phenylsulfonyl)-1H-indol-3-yl)methyl)amino)ethoxy)ethyl)-N-propylcyclohexanamine] | 94.6 | 6.6 | 0 | 153 | 10.5 | 73.9 | > 50
14 | CCCN(CCCCN(Cc1cccnc1F)Cc1cn(S(=O)(=O)c2ccccc2)c2ccccc12)C1CCCC1 [Compound 98] | 93.4 | 6.2 | 0 | 127 | 9.9 | 90.2 | > 50
15 | CCCCN(CCOCCN(Cc1cccnc1F)Cc1cn(S(=O)(=O)c2ccccc2)c2ccccc12)C1CCCCC1 [Compound 99, N-butyl-N-(2-(2-(((2-fluoropyridin-3-yl)methyl)((1-(phenylsulfonyl)-1H-indol-3-yl)methyl)amino)ethoxy)ethyl)cyclohexanamine] | 87.4 | 4.4 | 0 | 173 | 8.2 | 91.8 | > 50
16 | CCCN(CCOCCN(Cc1cccnc1F)Cc1cn(S(=O)(=O)c2ccccc2)c2ccccc12)C1CCCCC1 [Compound 101] | 81.9 | 7.9 | 0 | 152 | 17.4 | 56.3 | 35.5
17 | CCCCN(CCOCCN(Cc1cccnc1F)Cc1cn(S(=O)(=O)c2ccccc2)c2ccccc12)C1CCCCC1 [Compound 102] | 83.2 | 6.3 | 0 | 138 | 7.2 | 39.2 | > 25
